Experimental data from ChEMBL document CHEMBL3085700 (J Med Chem, 2013).
pIC50: −log10 of the molar value. Calls of active or inactive are those of the source. The calls are words filed in the database; no cut-off is given here.

Columns and labels:
[1] = biological target: T1, Fatty-acid amide hydrolase 1 (Homo sapiens, UniProt O00519); assay: Inhibition of human recombinant FAAH overexpressed in African green monkey COS7 cells using [3H]-anandamide as substrate preincubated for 10 mins before substrate addition measured after 10 mins by liquid scintillation counting analysis; type: cell-based, COS-7; conditions: for pIC50: read-out: IC50; for IC50: read-out: pIC50 (converted)
T1 sequence (O00519 whole entry): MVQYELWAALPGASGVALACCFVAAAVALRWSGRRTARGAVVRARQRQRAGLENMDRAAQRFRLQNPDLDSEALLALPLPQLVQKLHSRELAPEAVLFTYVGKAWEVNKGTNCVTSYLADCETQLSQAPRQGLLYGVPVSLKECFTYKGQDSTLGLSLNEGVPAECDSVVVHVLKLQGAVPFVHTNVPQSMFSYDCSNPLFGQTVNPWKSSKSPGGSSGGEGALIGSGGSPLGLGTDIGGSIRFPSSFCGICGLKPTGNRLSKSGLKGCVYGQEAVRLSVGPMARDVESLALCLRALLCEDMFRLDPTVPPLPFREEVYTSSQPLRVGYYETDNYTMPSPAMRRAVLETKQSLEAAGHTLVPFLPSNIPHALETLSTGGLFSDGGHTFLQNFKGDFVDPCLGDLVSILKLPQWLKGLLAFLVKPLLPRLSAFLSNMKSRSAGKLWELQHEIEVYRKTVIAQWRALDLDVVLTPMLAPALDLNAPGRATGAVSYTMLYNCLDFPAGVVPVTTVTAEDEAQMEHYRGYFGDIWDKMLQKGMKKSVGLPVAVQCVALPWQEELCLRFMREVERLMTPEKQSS

[2] = biological target: T2, Lysophosphatidylserine lipase ABHD12 (Homo sapiens) (UniProt Q8N2K0); assay: Inhibition of human ABHD12 overexpressed in HEK293 cells assessed as 2-AG hydrolysis at 1 uM by fluorescent glycerol assay; type: cell-based
T2 sequence (whole entry): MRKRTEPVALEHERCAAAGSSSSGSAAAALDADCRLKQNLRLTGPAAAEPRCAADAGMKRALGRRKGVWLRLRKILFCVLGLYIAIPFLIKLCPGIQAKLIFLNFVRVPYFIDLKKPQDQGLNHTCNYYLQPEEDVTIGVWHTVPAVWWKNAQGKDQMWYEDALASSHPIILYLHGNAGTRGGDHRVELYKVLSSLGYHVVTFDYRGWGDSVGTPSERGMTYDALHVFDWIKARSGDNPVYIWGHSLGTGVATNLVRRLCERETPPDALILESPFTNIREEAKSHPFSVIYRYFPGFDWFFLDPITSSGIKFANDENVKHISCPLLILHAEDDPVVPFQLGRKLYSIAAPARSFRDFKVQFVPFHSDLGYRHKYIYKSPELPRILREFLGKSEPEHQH

[3] = biological target: T3, Monoacylglycerol lipase ABHD6 (Homo sapiens) (UniProt Q9BV23); assay: Inhibition of human ABHD6 overexpressed in HEK293 cells assessed as 2-AG hydrolysis at 1 uM by fluorescent glycerol assay; type: cell-based
T3 sequence (whole entry): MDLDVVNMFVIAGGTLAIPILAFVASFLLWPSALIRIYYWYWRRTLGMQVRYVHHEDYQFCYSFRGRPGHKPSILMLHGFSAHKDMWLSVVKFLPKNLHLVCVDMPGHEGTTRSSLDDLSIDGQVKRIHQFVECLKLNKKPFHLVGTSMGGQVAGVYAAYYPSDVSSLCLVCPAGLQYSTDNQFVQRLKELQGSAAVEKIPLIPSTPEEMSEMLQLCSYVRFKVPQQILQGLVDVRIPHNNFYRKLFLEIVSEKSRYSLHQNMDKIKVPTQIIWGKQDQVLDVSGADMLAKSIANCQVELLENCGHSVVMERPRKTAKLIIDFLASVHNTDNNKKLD

[4] = biological target: T4, Prostaglandin G/H synthase 2 (Homo sapiens) (UniProt P35354); assay: Inhibition of human recombinant COX-2 assessed as inhibition of arachidonic acid cyclooxygenation at 100 uM measured within 10 to 50 secs relative to control
T4 sequence (whole entry): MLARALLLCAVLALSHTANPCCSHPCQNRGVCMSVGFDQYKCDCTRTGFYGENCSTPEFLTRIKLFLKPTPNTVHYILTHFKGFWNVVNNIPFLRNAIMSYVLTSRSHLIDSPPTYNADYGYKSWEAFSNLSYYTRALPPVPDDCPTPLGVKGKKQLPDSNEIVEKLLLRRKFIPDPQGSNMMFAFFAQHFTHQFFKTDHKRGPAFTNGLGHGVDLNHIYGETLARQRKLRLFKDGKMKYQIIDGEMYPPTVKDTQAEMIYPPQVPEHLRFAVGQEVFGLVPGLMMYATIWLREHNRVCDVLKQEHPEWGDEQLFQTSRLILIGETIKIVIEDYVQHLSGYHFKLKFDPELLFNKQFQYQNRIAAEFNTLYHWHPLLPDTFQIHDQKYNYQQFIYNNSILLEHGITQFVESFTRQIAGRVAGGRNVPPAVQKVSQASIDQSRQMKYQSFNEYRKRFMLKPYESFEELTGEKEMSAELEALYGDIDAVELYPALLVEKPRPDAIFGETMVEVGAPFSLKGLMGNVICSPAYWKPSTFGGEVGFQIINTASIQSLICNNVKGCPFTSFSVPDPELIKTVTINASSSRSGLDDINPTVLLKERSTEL

[5] = biological target: T4, Prostaglandin G/H synthase 2 (Homo sapiens); assay: Inhibition of human recombinant COX-2 assessed as inhibition of arachidonic acid cyclooxygenation at 30 uM measured within 10 to 50 secs relative to control
[6] = biological target: T4, Prostaglandin G/H synthase 2 (Homo sapiens); assay: Inhibition of human recombinant COX-2 assessed as inhibition of arachidonic acid cyclooxygenation at 10 uM measured within 10 to 50 secs relative to control
[7] = biological target: T5, Prostaglandin G/H synthase 1 (Ovis aries) (UniProt P05979); assay: Inhibition of ovine COX-1 using arachidonic acid as substrate assessed as oxygen consumption at 100 uM measured within 10 to 50 secs
T5 sequence (whole entry): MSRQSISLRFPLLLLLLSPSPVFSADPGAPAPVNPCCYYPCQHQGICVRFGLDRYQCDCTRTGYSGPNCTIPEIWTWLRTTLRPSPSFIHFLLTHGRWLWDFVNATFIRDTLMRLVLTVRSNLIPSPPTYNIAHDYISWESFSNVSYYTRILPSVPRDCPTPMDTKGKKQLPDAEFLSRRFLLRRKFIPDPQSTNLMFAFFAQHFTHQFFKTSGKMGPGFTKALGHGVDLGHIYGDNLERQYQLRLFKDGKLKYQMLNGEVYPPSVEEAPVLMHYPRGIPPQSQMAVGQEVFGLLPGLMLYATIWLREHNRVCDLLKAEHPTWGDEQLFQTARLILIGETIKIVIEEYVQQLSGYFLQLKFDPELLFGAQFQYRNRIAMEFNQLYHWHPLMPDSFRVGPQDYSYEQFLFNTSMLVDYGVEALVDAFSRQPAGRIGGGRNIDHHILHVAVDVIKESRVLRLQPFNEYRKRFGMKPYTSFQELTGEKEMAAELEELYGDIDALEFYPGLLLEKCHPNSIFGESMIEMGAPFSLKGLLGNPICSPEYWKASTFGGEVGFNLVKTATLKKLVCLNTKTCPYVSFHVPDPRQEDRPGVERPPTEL

[8] = biological target: T5, Prostaglandin G/H synthase 1 (Ovis aries); assay: Inhibition of ovine COX-1 using arachidonic acid as substrate assessed as oxygen consumption at 10 uM measured within 10 to 50 secs
[9] = biological target: T4, Prostaglandin G/H synthase 2 (Homo sapiens); assay: Inhibition of human recombinant COX-2 assessed as inhibition of 2-AG cyclooxygenation at 100 uM measured within 10 to 50 secs relative to control
[10] = biological target: T4, Prostaglandin G/H synthase 2 (Homo sapiens); assay: Inhibition of human recombinant COX-2 assessed as inhibition of 2-AG cyclooxygenation at 30 uM measured within 10 to 50 secs relative to control
[11] = biological target: T4, Prostaglandin G/H synthase 2 (Homo sapiens); assay: Inhibition of human recombinant COX-2 assessed as inhibition of 2-AG cyclooxygenation at 10 uM measured within 10 to 50 secs relative to control
[12] = biological target: T5, Prostaglandin G/H synthase 1 (Ovis aries); assay: Inhibition of ovine COX-1 using arachidonic acid as substrate assessed as oxygen consumption at 30 uM measured within 10 to 50 secs
Monoglyceride lipase = biological target: T6, Monoglyceride lipase (Homo sapiens, UniProt Q99685); assay: Inhibition of human recombinant MAGL overexpressed in HEK cells using 2-AG as substrate preincubated for 10 mins before substrate addition measured after 10 mins by HPLC analysis; type: cell-based, HEK293
T6 sequence (Q99685 whole entry): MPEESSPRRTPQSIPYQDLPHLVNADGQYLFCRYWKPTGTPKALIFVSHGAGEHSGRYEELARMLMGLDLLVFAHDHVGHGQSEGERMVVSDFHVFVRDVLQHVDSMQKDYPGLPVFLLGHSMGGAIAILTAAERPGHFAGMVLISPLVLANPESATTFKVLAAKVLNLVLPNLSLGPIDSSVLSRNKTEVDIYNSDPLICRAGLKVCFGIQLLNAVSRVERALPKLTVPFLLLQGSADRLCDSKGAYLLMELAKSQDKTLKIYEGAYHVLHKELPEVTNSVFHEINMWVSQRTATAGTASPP

[13] = biological target: T7, Fatty-acid amide hydrolase 1 (Homo sapiens) (UniProt O00519); assay: Reversible inhibition of human recombinant FAAH overexpressed in African green monkey COS7 cells using […] as substrate assessed as recovery of enzyme activity at 20 x IC50 preincubated for 60 mins followed by 500 fold dilution measured after 10 mins by HPLC analysis; type: cell-based; conditions: COS-7
T7 sequence (whole entry): T1 sequence (O00519 whole entry)

[14] = biological target: T7, Fatty-acid amide hydrolase 1 (Homo sapiens); assay: Inhibition of human recombinant FAAH overexpressed in African green monkey COS7 cells using [3H]-anandamide as substrate at 300 uM preincubated for 10 to 60 mins by liquid scintillation counting analysis; type: cell-based; conditions: COS-7
[15] = biological target: T8, Fatty-acid amide hydrolase 1 (Mus musculus) (UniProt O08914); conditions: Brain, Membrane, 10 uM
T8 sequence (whole entry): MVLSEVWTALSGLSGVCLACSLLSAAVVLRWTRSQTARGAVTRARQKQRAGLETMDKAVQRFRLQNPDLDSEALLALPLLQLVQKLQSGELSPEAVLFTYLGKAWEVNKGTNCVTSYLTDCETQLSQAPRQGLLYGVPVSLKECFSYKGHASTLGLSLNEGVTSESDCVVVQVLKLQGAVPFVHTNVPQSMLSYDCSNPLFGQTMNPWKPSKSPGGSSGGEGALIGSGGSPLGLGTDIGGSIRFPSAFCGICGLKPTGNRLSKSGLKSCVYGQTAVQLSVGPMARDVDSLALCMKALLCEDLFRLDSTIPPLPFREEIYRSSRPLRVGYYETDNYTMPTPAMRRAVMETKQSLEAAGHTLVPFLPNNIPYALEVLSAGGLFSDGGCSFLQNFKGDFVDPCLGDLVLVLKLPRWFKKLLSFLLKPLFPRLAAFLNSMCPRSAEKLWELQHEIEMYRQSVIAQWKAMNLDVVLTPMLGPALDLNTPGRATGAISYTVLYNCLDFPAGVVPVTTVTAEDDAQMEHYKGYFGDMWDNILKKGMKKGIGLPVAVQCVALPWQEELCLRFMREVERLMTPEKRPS
Description: Inhibition of TAMRA-FP-labeled FAAH in mouse brain membrane at 10 uM after 1 hr by fluorescent gel scanning assay

Compound | pIC50 [1] | IC50 [1] [nM] | inhibition [2] | inhibition [3] | inhibition [4] [%] | inhibition [5] [%] | inhibition [6] [%] | inhibition [7] [%] | inhibition [8] | inhibition [9] [%] | inhibition [10] [%] | inhibition [11] [%] | inhibition [12] [%] | pIC50 (Monoglyceride lipase; read-out: IC50) | IC50 (Monoglyceride lipase; read-out: pIC50 (converted)) [nM] | inhibition [13] | inhibition [14] | inhibition [15]
COc1nn([C@H](C)c2ccc(CC(C)C)cc2)c(=O)o1 | 6.62 | 245 | inactive | inactive | 50 | 40 | 30 | 20 | inactive | 30 | 10 | 20 | 10 | 5.40 | 13500 |  |  | 
O=C(Nc1ccccc1)N1CCC(Cc2ccc3ccccc3n2)CC1 | 6.49 | 324 |  |  |  |  |  |  |  |  |  |  |  |  |  | inactive | Active | 
O=C(Oc1ccc([N+](=O)[O-])cc1)N1CCN(Cc2cccc(Oc3ccccc3)c2)CC1 |  |  |  |  |  |  |  |  |  |  |  |  |  |  |  |  |  | Active
